Patent publication US20010014364A1, “Use of stabilized bromine to improve quality and appearance of leafy vegetables or the like” (priority 1997, published 2001)

Columns and labels:
[1] = tested on: aerobic plate count bacteria; assay: Aerobic plate count (APC) bacteria on leaf lettuce after direct application of halogen solution and during storage; format: cell-based; conditions: for Log reduction of microbial populations from leaf lettuce surface / Percent reduction of microbial populations from leaf lettuce surface: APC, compared to unwashed control; for Aerobic plate count (APC) bacterial populations: storage at 4-6° C.
Experimental: (§1) Solutions of either stabilized sodium hyprobromite or industrial unstabilized sodium hypochlorite were added to “tap” water in order to achieve a 50, 100, or 200 ppm total halogen residual (as chlorine). The “tap” water contained calcium (90 ppm as CaCO3), “M” alkalinity (110 ppm as CaCO3) and magnesium (50 ppm as CaCO3) in deionized water. The “tap” water was buffered at pH 7.5 using borax and monobasic potassium phosphate. Solutions of stabilized sodium hypobromite or unstabilized sodium hypochlorite were applied directly to leaf lettuce by dipping the lettuce in the solutions for 3-minutes. Lettuce was immediately removed, drained for 1-minute, rinsed for 30-seconds with potable water, drained for 1-minute, and then spun dry with a bench-top lettuce spinner. Lettuce was analyzed for microbial populations remaining on the surface and 50-gram portions were stored at 4-6° C. for shelf-life evaluation. Shelf-life was visually judged for changes in color (browning) and odor.

yeast and mold = assay: Yeast and mold (YM) count on leaf lettuce after direct application of halogen solution and during storage; format: cell-based; conditions: for Yeast and mold (YM) count populations: storage at 4-6° C.; for Log reduction of microbial populations from leaf lettuce surface / Percent reduction of microbial populations from leaf lettuce surface: YM, compared to unwashed control
Experimental: as §1

OCl [Bleach, sodium hypochlorite]
Log reduction of microbial populations from leaf lettuce surface ([1]; 50 ppm av. Cl2): 2.1 Log
Percent reduction of microbial populations from leaf lettuce surface ([1]; 50 ppm av. Cl2): 99.200%
Log reduction of microbial populations from leaf lettuce surface ([1]; 100 ppm av. Cl2): 2.1 Log
Percent reduction of microbial populations from leaf lettuce surface ([1]; 100 ppm av. Cl2): 99.120%
Log reduction of microbial populations from leaf lettuce surface ([1]; 200 ppm av. Cl2): 2.1 Log
Percent reduction of microbial populations from leaf lettuce surface ([1]; 200 ppm av. Cl2): 99.200%
Aerobic plate count (APC) bacterial populations ([1]; Day 0, 50 ppm av. Cl2): 5.3 Log10 CFU/g lettuce
Aerobic plate count (APC) bacterial populations ([1]; Day 0, 100 ppm av. Cl2): 5.3 Log10 CFU/g lettuce
Aerobic plate count (APC) bacterial populations ([1]; Day 0, 200 ppm av. Cl2): 5.3 Log10 CFU/g lettuce
Aerobic plate count (APC) bacterial populations ([1]; Day 1, 50 ppm av. Cl2): 5.4 Log10 CFU/g lettuce
Aerobic plate count (APC) bacterial populations ([1]; Day 1, 100 ppm av. Cl2): 5.3 Log10 CFU/g lettuce
Aerobic plate count (APC) bacterial populations ([1]; Day 1, 200 ppm av. Cl2): 5.5 Log10 CFU/g lettuce
Aerobic plate count (APC) bacterial populations ([1]; Day 2, 50 ppm av. Cl2): 6.4 Log10 CFU/g lettuce
Aerobic plate count (APC) bacterial populations ([1]; Day 2, 100 ppm av. Cl2): 6.6 Log10 CFU/g lettuce
Aerobic plate count (APC) bacterial populations ([1]; Day 2, 200 ppm av. Cl2): 7.0 Log10 CFU/g lettuce
Aerobic plate count (APC) bacterial populations ([1]; Day 4, 50 ppm av. Cl2): 6.5 Log10 CFU/g lettuce
Aerobic plate count (APC) bacterial populations ([1]; Day 4, 100 ppm av. Cl2): 6.6 Log10 CFU/g lettuce
Aerobic plate count (APC) bacterial populations ([1]; Day 4, 200 ppm av. Cl2): 7.5 Log10 CFU/g lettuce
Aerobic plate count (APC) bacterial populations ([1]; Day 5, 50 ppm av. Cl2): 6.0 Log10 CFU/g lettuce
Aerobic plate count (APC) bacterial populations ([1]; Day 5, 100 ppm av. Cl2): 6.4 Log10 CFU/g lettuce
Aerobic plate count (APC) bacterial populations ([1]; Day 5, 200 ppm av. Cl2): 6.6 Log10 CFU/g lettuce
Aerobic plate count (APC) bacterial populations ([1]; Day 6, 50 ppm av. Cl2): 6.6 Log10 CFU/g lettuce
Aerobic plate count (APC) bacterial populations ([1]; Day 6, 100 ppm av. Cl2): 6.6 Log10 CFU/g lettuce
Aerobic plate count (APC) bacterial populations ([1]; Day 6, 200 ppm av. Cl2): 8.1 Log10 CFU/g lettuce
Aerobic plate count (APC) bacterial populations ([1]; Day 7, 50 ppm av. Cl2): 7.2 Log10 CFU/g lettuce
Aerobic plate count (APC) bacterial populations ([1]; Day 7, 100 ppm av. Cl2): 7.2 Log10 CFU/g lettuce
Aerobic plate count (APC) bacterial populations ([1]; Day 7, 200 ppm av. Cl2): 7.7 Log10 CFU/g lettuce
Aerobic plate count (APC) bacterial populations ([1]; Day 8, 50 ppm av. Cl2): 7.7 Log10 CFU/g lettuce
Aerobic plate count (APC) bacterial populations ([1]; Day 8, 100 ppm av. Cl2): 8.1 Log10 CFU/g lettuce
Aerobic plate count (APC) bacterial populations ([1]; Day 8, 200 ppm av. Cl2): 7.6 Log10 CFU/g lettuce
Aerobic plate count (APC) bacterial populations ([1]; Day 9, 50 ppm av. Cl2): 7.6 Log10 CFU/g lettuce
Aerobic plate count (APC) bacterial populations ([1]; Day 9, 100 ppm av. Cl2): 7.4 Log10 CFU/g lettuce
Aerobic plate count (APC) bacterial populations ([1]; Day 9, 200 ppm av. Cl2): 7.5 Log10 CFU/g lettuce
Aerobic plate count (APC) bacterial populations ([1]; Day 10, 50 ppm av. Cl2): 7.6 Log10 CFU/g lettuce
Aerobic plate count (APC) bacterial populations ([1]; Day 10, 100 ppm av. Cl2): 7.0 Log10 CFU/g lettuce
Aerobic plate count (APC) bacterial populations ([1]; Day 10, 200 ppm av. Cl2): 8.6 Log10 CFU/g lettuce
Aerobic plate count (APC) bacterial populations ([1]; Day 11, 50 ppm av. Cl2): 8.0 Log10 CFU/g lettuce
Aerobic plate count (APC) bacterial populations ([1]; Day 11, 100 ppm av. Cl2): 7.9 Log10 CFU/g lettuce
Aerobic plate count (APC) bacterial populations ([1]; Day 11, 200 ppm av. Cl2): 8.5 Log10 CFU/g lettuce
Aerobic plate count (APC) bacterial populations ([1]; Day 12, 50 ppm av. Cl2): 8.3 Log10 CFU/g lettuce
Aerobic plate count (APC) bacterial populations ([1]; Day 12, 100 ppm av. Cl2): 8.0 Log10 CFU/g lettuce
Aerobic plate count (APC) bacterial populations ([1]; Day 12, 200 ppm av. Cl2): 8.4 Log10 CFU/g lettuce
Yeast and mold (YM) count populations (yeast and mold; Day 0, 50 ppm av. Cl2): 2.8 Log10 CFU/g lettuce
Yeast and mold (YM) count populations (yeast and mold; Day 0, 100 ppm av. Cl2): 2.9 Log10 CFU/g lettuce
Yeast and mold (YM) count populations (yeast and mold; Day 0, 200 ppm av. Cl2): 2.7 Log10 CFU/g lettuce
Yeast and mold (YM) count populations (yeast and mold; Day 1, 50 ppm av. Cl2): 2.7 Log10 CFU/g lettuce
Yeast and mold (YM) count populations (yeast and mold; Day 1, 100 ppm av. Cl2): 2.9 Log10 CFU/g lettuce
Yeast and mold (YM) count populations (yeast and mold; Day 1, 200 ppm av. Cl2): 2.7 Log10 CFU/g lettuce
Yeast and mold (YM) count populations (yeast and mold; Day 2, 50 ppm av. Cl2): 2.7 Log10 CFU/g lettuce
Yeast and mold (YM) count populations (yeast and mold; Day 2, 100 ppm av. Cl2): 2.8 Log10 CFU/g lettuce
Yeast and mold (YM) count populations (yeast and mold; Day 2, 200 ppm av. Cl2): 2.8 Log10 CFU/g lettuce
Yeast and mold (YM) count populations (yeast and mold; Day 4, 50 ppm av. Cl2): 4.5 Log10 CFU/g lettuce
Yeast and mold (YM) count populations (yeast and mold; Day 4, 100 ppm av. Cl2): 4.1 Log10 CFU/g lettuce
Yeast and mold (YM) count populations (yeast and mold; Day 4, 200 ppm av. Cl2): 4.4 Log10 CFU/g lettuce
Yeast and mold (YM) count populations (yeast and mold; Day 5, 50 ppm av. Cl2): 3.3 Log10 CFU/g lettuce
Yeast and mold (YM) count populations (yeast and mold; Day 5, 100 ppm av. Cl2): 3.5 Log10 CFU/g lettuce
Yeast and mold (YM) count populations (yeast and mold; Day 5, 200 ppm av. Cl2): 3.0 Log10 CFU/g lettuce
Yeast and mold (YM) count populations (yeast and mold; Day 6, 50 ppm av. Cl2): 3.8 Log10 CFU/g lettuce
Yeast and mold (YM) count populations (yeast and mold; Day 6, 100 ppm av. Cl2): 3.9 Log10 CFU/g lettuce
Yeast and mold (YM) count populations (yeast and mold; Day 6, 200 ppm av. Cl2): 4.5 Log10 CFU/g lettuce
Yeast and mold (YM) count populations (yeast and mold; Day 7, 50 ppm av. Cl2): 3.7 Log10 CFU/g lettuce
Yeast and mold (YM) count populations (yeast and mold; Day 7, 100 ppm av. Cl2): 4.5 Log10 CFU/g lettuce
Yeast and mold (YM) count populations (yeast and mold; Day 7, 200 ppm av. Cl2): 4.0 Log10 CFU/g lettuce
Yeast and mold (YM) count populations (yeast and mold; Day 8, 50 ppm av. Cl2): 4.4 Log10 CFU/g lettuce
Yeast and mold (YM) count populations (yeast and mold; Day 8, 100 ppm av. Cl2): 4.9 Log10 CFU/g lettuce
Yeast and mold (YM) count populations (yeast and mold; Day 8, 200 ppm av. Cl2): 4.4 Log10 CFU/g lettuce
Yeast and mold (YM) count populations (yeast and mold; Day 9, 50 ppm av. Cl2): 4.0 Log10 CFU/g lettuce
Yeast and mold (YM) count populations (yeast and mold; Day 9, 100 ppm av. Cl2): 4.6 Log10 CFU/g lettuce
Yeast and mold (YM) count populations (yeast and mold; Day 9, 200 ppm av. Cl2): 4.2 Log10 CFU/g lettuce
Yeast and mold (YM) count populations (yeast and mold; Day 10, 50 ppm av. Cl2): 4.1 Log10 CFU/g lettuce
Yeast and mold (YM) count populations (yeast and mold; Day 10, 100 ppm av. Cl2): 3.8 Log10 CFU/g lettuce
Yeast and mold (YM) count populations (yeast and mold; Day 10, 200 ppm av. Cl2): 4.5 Log10 CFU/g lettuce
Yeast and mold (YM) count populations (yeast and mold; Day 11, 50 ppm av. Cl2): 4.9 Log10 CFU/g lettuce
Yeast and mold (YM) count populations (yeast and mold; Day 11, 100 ppm av. Cl2): 4.5 Log10 CFU/g lettuce
Yeast and mold (YM) count populations (yeast and mold; Day 11, 200 ppm av. Cl2): 4.6 Log10 CFU/g lettuce
Yeast and mold (YM) count populations (yeast and mold; Day 12, 50 ppm av. Cl2): 5.5 Log10 CFU/g lettuce
Yeast and mold (YM) count populations (yeast and mold; Day 12, 100 ppm av. Cl2): 4.8 Log10 CFU/g lettuce
Yeast and mold (YM) count populations (yeast and mold; Day 12, 200 ppm av. Cl2): 4.8 Log10 CFU/g lettuce
Log reduction of microbial populations from leaf lettuce surface (yeast and mold; 50 ppm av. Cl2): 2.4 Log
Percent reduction of microbial populations from leaf lettuce surface (yeast and mold; 50 ppm av. Cl2): 99.647%
Log reduction of microbial populations from leaf lettuce surface (yeast and mold; 100 ppm av. Cl2): 2.3 Log
Percent reduction of microbial populations from leaf lettuce surface (yeast and mold; 100 ppm av. Cl2): 99.494%
Log reduction of microbial populations from leaf lettuce surface (yeast and mold; 200 ppm av. Cl2): 2.5 Log
Percent reduction of microbial populations from leaf lettuce surface (yeast and mold; 200 ppm av. Cl2): 97.729%
Yeasts and molds reduced (yeast and mold; lettuce washed with the halogen solution): about 2 log
